Data published in patent publication US9855320B2, “Angiogenin for treatment of glaucoma” (CHUNG-ANG UNIVERSITY INDUSTRY-ACADEMIC COOPERATION …, priority 2011, dated 2018).

Assays:
TGF-β = assay: Reverse transcription polymerase chain reaction on injured tissue of corneal chemical burn model, TGF-β; assay type: in vivo, rat; details: third day and seventh day after keratoconjunctival chemical injury
Procedure: (§1) Three days, and 1, 2, 4, and 8 weeks after injuring, corneal opacity and neoangiogenesis level were assessed in consideration of images of anterior ocular segment, and on the third day and the seventh day, the respective conjunctiva damaged parts were collected and then subjected to a reverse transcription polymerase chain reaction to assay expression of IL-1a, TGF-β, SDF-1, and caspase-3.
(§2) Tissues obtained from chronic intraocular pressure increase model and corneal chemical burn model were frozen, and then cut into small parts by using a fine knife. The tissue parts were treated with 1 ml of TRI reagent (Molecular Research Center, Inc.) and then, tissue and cell were lysed by homogenizer. The respective implication cDNA […] 0.2 mM dNTP, 10×buffer, 10 pmols primer, and 0.2 U Taq polymerase were mixed to obtain a volume of 20 μl, and then, PCR thermal cycler (a machine for PCR) was used for reaction for 5 minutes at 95° C., 40 second at 94° C., 40 seconds at 48 to 64° C., 40 seconds (35 cycles) at 72° C., and 10 minutes at 72° C. The amplified polymerase chain reaction product was identified by 1% agarose gel electrophoresis. β actin was used as a positive control for the polymerase chain reaction, and relative expression morphs of a target gene with respect to β actin expression were compared. […]

[1] = tested on: chronic intraocular pressure increase rat model; assay: Intraocular pressure in chronic intraocular pressure increase rat model (episcleral venous electric ablation); assay type: in vivo
Procedure: (§3) 0.05 cc/50 g of Tiletimine and Zolazepam-mixed medicament (Zoletil) and Xylazine (Rompum) were mixed at a ratio of 1:1 and then administered to 20 rats by intramuscular injection, thereby anesthetizing the rats. A limbus periphery was divided into four portions, each of which was then subjected to 2 mm dissection at an interval of 90 degrees, and then, two radial conjunctival excisions were performed on upper dissection periphery. […] After surgical isolation of vein, the vein was lifted up by using 3 mm-width spatula to be spaced apart from the peripheral tissue, and then, was subjected to electric ablation while being careful for the peripheral tissue not to have any thermal damage or any mechanical damage due to contact. Intraocular pressure was consecutively measured three or more times by using Tonopen (Solan, Fla., USA), and only reliable intraocular pressure values within 5 percentile were recorded. 10 eyes of 10 rats were daily treated 4 times with angiogenin 10 μl 2 days before test, and even after espisderal venous electric ablation, 4 times a day at time intervals of 6 hours. The other 10 eyes of the rats, as a control, were consecutively treated in the same manner with physiological saline solution 10 μl before and after the ablation. Before the operation, and 3 days, and 1, 2, 4, and 8 weeks after the operation, intraocular pressure was measured, and the rats were sacrificed to extract eyes therefrom, which were then subjected to tissue examination and immunechemical staining with respect to Brn-3a and CD11b, and a reverse transcription polymerase chain reaction was used to measure CD11b value in retinal tissue.

CD11b = assay: Reverse transcription polymerase chain reaction of CD11b in retinal tissue, chronic intraocular pressure increase model; assay type: in vivo; details: seventh day after episcleral venous electric ablation, compared to the control and the normal rat group
Procedure: as §3, with “10 eyes of 10 rats were daily treated 4 times with angiogenin 10 μl 2 days before test, and even after espisderal venous electric ablation, 4 times a day at time intervals of 6 hours. The other 10 eyes of the rats, as a control, were consecutively treated in the same manner with physiological saline solution 10 μl before and after the ablation.” left out, “tissue. […]” for “tissue.”

CD11b marked macrophage = assay: CD11b immunochemical staining of retina, chronic intraocular pressure increase model; assay type: in vivo, rat
Procedure: as §3, with “10 eyes of 10 rats were daily treated 4 times with angiogenin 10 μl 2 days before test, and even after espisderal venous electric ablation, 4 times a day at time intervals of 6 hours. The other 10 eyes of the rats, as a control, were consecutively treated in the same manner with physiological saline solution 10 μl before and after the ablation.” left out, “tissue. […]” for “tissue.”

caspase-3 = assay: Reverse transcription polymerase chain reaction on injured tissue of corneal chemical burn model, caspase-3; assay type: in vivo, rat; details: third day and seventh day after keratoconjunctival chemical injury
Procedure: as §1, §2

[2] = tested on: Brn-3a marked retinal ganglion cell; assay: Brn-3a immunochemical staining of retina, chronic intraocular pressure increase model; assay type: in vivo, rat
Procedure: as §3, with “10 eyes of 10 rats were daily treated 4 times with angiogenin 10 μl 2 days before test, and even after espisderal venous electric ablation, 4 times a day at time intervals of 6 hours. The other 10 eyes of the rats, as a control, were consecutively treated in the same manner with physiological saline solution 10 μl before and after the ablation.” left out, “tissue. […]” for “tissue.”

glaucoma white rats = assay: Intraocular pressure change due to instillation in glaucoma white rats (day-time and night-time); assay type: in vivo, rat
Procedure: Male white rats were used to prepare an episcleral venous ablation glaucoma model. The rat was anesthetized and a limbus periphery was divided into four portions, each of which was then subjected to 2 mm dissection at an interval of 90 degrees, and then, two radial conjunctival excisions were performed on upper dissection periphery. […] Episcleral vein is distinguishable because it is located […] than extra ocular muscle, has relatively low fluidity and a relatively large diameter, contains darker blood in vessel, and is connected to peripheral venous plexus. After surgical isolation of vein, the vein was lifted up by using 3 mm-width wooden spatula to be spaced apart from the peripheral tissue, and then, was subjected to electric ablation while being careful for the peripheral tissue not to have any thermal injury or any mechanical injury due to the contact. After the operation, a chloramphenical ophthalmic agent was administered thereto. Intraocular pressure was consecutively measured three or more times by using Tonopen (Solan, Fla., USA), and only reliable intraocular pressure values within 5% or less were recorded. Only used were rats that had higher intraocular pressure than that before the operation by 5 mmHg or more when measured on the first day, the third day, one week and two weeks before and after operation.
Also, steroid-induced glaucoma model was prepared as follows: 1% prednisolone was instilled twice a day in an amount of 4 μl for 30 days, and only rats that had higher intraocular pressure by 5 mmHg or more before operation were used.
White rats were grouped as a physiological saline solution instillation group, an angiogenin (recombinant human angiogenin, R&D systems, USA) 50 μg/ml instillation group, an angiogenin fragment (angiogenin 108-122, SEQ ID NO: 1, BACHEM, USA) instillation group, and a latanoprost 50 μg/ml instillation group, and each group consisted of 6 rats, that is, 12 eyes. Instillation test was repeatedly performed on normal rats and glaucoma model rats. Ophthalmic agent was administered at 8 AM and 8 PM in an amount of 4 μl to compare day-time effects and night-time effects, and 1, 3, 6, 9, 12, and 24 hours after the instillation, intraocular pressure was measured.

SDF-1 = assay: Reverse transcription polymerase chain reaction on injured tissue of corneal chemical burn model, SDF-1; assay type: in vivo, rat; details: third day and seventh day after keratoconjunctival chemical injury
Procedure: as §1, §2

In the case of “angiogenin: recombinant human angiogenin (R&D systems); 14.4 kDa single chain protein of 123 amino acids, a ribonuclease inducing angiogenesis”, the “TGF-β expression compared to the control” value (TGF-β) is reported as “less expressed”, the average intraocular pressure ([1]; 1 week after the treatment, control 27.8±4.1) is reported as 21.4±6.2 mmHg and the average intraocular pressure ([1]; 2 weeks after the treatment, control 25±3.0) is reported as 20.8±4.0 mmHg. For the same substance, the average intraocular pressure ([1]; 4 weeks after the treatment, control 25.6±1.6) was 23.6±2.0 mmHg, the average intraocular pressure ([1]; 8 weeks after the treatment, control 23.0±2.4) was 21.7±3.4 mmHg and the “average intraocular pressure compared to the control (in words)” value ([1]; 3 days, and 1, 2, and 4 weeks after the episcleral venous injury) was “significantly lower”. For the same substance, the average intraocular pressure ([1]; before test, 10 eyes) was 20.6±1.9 mmHg, the average intraocular pressure ([1]; for 8 weeks (overall average), control 25.4±3.6) was 21.2±3.8 mmHg and the “intraocular pressure difference to the control” value ([1]; third day after the treatment (biggest difference)) was 6.75±0.3 mmHg. For the same substance, the average intraocular pressure ([1]; three days after the treatment, control 27.3±2.9) was 20.7±2.6 mmHg, the “CD11b expression in retina” value (CD11b) was “significantly higher” and the “distribution of CD11b marked macrophage in retinal ganglion layer” value (CD11b marked macrophage) was “highly frequently distributed”. For the same substance, the “caspase-3 expression compared to the control” value (caspase-3) was “less expressed”, the “density of Brn-3a marked retinal ganglion cell” value [2] was “well maintained” and the “time after instillation up to which significant intraocular pressure reduction effects were retained” value (glaucoma white rats; day-time instillation test) was “up to 6 hours”. The “time after instillation up to which intraocular pressure reduction effects were retained” value (glaucoma white rats; night-time instillation) was “up to 12 hours” and the “SDF-1 expression compared to the control” value (SDF-1) was “less expressed”.
